Reference: patent publication US8039076B2, “Dye and recording media utilizing the same” (Industrial Technology Research Institute, priority 2006, dated 2011)

Test: Optical measurement of the dyes by UV-visible spectrophotometer
Assay type: physicochemical
Parameters: Max absorption wavelength in MeOH solution: unit: nm
Conditions: for absorption coefficient (ε) (* 10^4) / Max absorption wavelength in MeOH solution: MeOH solution
Excerpt: Measured by UV-visible spectrophotometer, the optical properties (e.g. maximum absorption wavelength in solution) of the dyes of the preferred embodiments are tabulated in Table 1. In Table 1, dye I-2 has a maximum absorption wavelength of 489 nm in methanol solution, and dye V-2 has a maximum absorption wavelength of 493 nm in methanol solution, respectively.

[1] = at second printed absorption maximum

absorption coefficient (ε) (* 10^4) (at first absorption maximum)	Max absorption wavelength in MeOH solution (first band)	maximum absorption wavelength in methanol solution [nm]	absorption coefficient (ε) (* 10^4) [1]	Max absorption wavelength in MeOH solution (second printed band)	Compound
15.4 * 10^4	489	489	–	–	CC1=[N+](C)c2ccccc2C1(C)C [Dye I-2]
19.1 * 10^4	493	493	–	–	CC1=[N+](C)c2ccccc2C1(C)C [Dye V-2]
6.22 * 10^4	460	–	–	–	CCCC[N+](CCCC)(CCCC)CCCC [I-c]
7.58 * 10^4	471	–	–	–	CC1=[N+](Cc2ccc(C(=O)OCC(F)(F)C(F)F)cc2)c2ccccc2C1(C)C [I-e]
8.08 * 10^4	448	–	–	–	CC1=[N+](Cc2ccc(C(=O)OCC(F)(F)C(F)F)cc2)c2ccccc2C1(C)C [I-f]
10.7 * 10^4	472	–	–	–	Cc1sc2ccccc2[n+]1C [I-m]
11.5 * 10^4	462	–	–	–	CC1=[N+](C)c2ccccc2C1(C)C [I-n]
6.8 * 10^4	461	–	3.8 * 10^4	1067	CCCCN(CCCC)c1ccc([N+](=C2C=CC(=[N+](c3ccc(N(CCCC)CCCC)cc3)c3ccc(N(CCCC)CCCC)cc3)C=C2)c2ccc(N(CCCC)CCCC)cc2)cc1 [V-c]
10.35 * 10^4	490	–	–	–	CC1=[N+](C)c2ccccc2C1(C)C [V-e]

Further lines, the compound ahead of its results:

Compound	absorption coefficient (ε) (* 10^4) (at first absorption maximum)	Max absorption wavelength in MeOH solution (first band)	maximum absorption wavelength in methanol solution [nm]	absorption coefficient (ε) (* 10^4) [1]	Max absorption wavelength in MeOH solution (second printed band)
c1ccncc1 [I-a]	4.98 * 10^4	460	–	–	–
CC1=[N+](Cc2ccc(C(=O)OCC(F)(F)C(C)F)cc2)c2ccccc2C1(C)C (stereo not drawn) [I-b]	8.4 * 10^4	495	–	–	–
CCCCN(CCCC)c1ccc([N+](=C2C=CC(=[N+](c3ccc(N(CCCC)CCCC)cc3)c3ccc(N(CCCC)CCCC)cc3)C=C2)c2ccc(N(CCCC)CCCC)cc2)cc1 [I-d]	6.58 * 10^4	460	–	5.11 * 10^4	1067
CC1=[N+](Cc2ccc(C(=O)OCC(F)(F)C(F)F)cc2)c2ccccc2C1(C)C [I-g]	12.99 * 10^4	463	–	–	–
CC1=[N+](C)c2ccccc2C1(C)C [I-h]	18.5 * 10^4	462	–	–	–
CC1=[N+](Cc2ccc(C(=O)OCC(F)(F)C(F)F)cc2)c2ccccc2C1(C)C [I-i]	12.2 * 10^4	464	–	–	–
CCCC[N+]1=C(C)C(C)(C)c2ccccc21 [I-j]	12.1 * 10^4	459	–	–	–
CCOC(=O)CCCC[N+]1=C(C)C(C)(C)c2ccccc21 [I-k]	11.8 * 10^4	460	–	–	–
COS(=O)(=O)CCCC[N+]1=C(C)C(C)(C)c2ccccc21 [I-l]	12.5 * 10^4	461	–	–	–
CCCC[N+](CCCC)(CCCC)CCCC [V-a]	6.41 * 10^4	461	–	–	–
CC1=[N+](Cc2ccc(C(=O)OCC(C)(C)C(C)C)cc2)c2ccccc2C1(C)C [V-b]	9.72 * 10^4	492	–	–	–
CCN(CC)CC [V-d]	8.45 * 10^4	463	–	–	–
